# Results: PubChem BioAssay AID2060362 (Molecular Pharmacology Branch, DTP, NCI, 2025)
# Test system: 128128-338-R-J1-PDC spheroids, viability % test/control
# Test: Anticancer human tumor 128128-338-R-J1-PDC patient-derived melanoma cell line growth inhibition [TAK]
# Details: spheroids with HUVEC and MSC; for IC50: curve of first compound; for viability, T/C: stronger effect = lower value
# From the text: Combinatorial screen of targeted agents with TAK-243 and ipatasertib in multi-cell type tumor spheroids
# A high-throughput screen of multi-cell type tumor spheroids was designed to identify active combinations of targeted small molecules and TAK-243 or ipatasertib. Complex spheroids include a stromal component modeled by human endothelial cells (HUVEC) and fibroblasts modeled by human mesenchymal stem cells (MSCs). The concentration ranges selected for each drug and investigational agent were based upon clinically achievable concentrations if the clinical Cmax of the agent was known.
# Compounds. The drugs and investigational agents: TAK-243 (785004), ipatasertib (767898), everolimus (733504), selumetinib (741078), bortezomib (756655), trametinib (758246), ixazomib (758254), vemurafenib (761431), dabrafenib (764134), sapanisertib (764658), alpelisib (765974), and copanlisib (816437), were obtained from the National Cancer Institute (NCI) Developmental Therapeutics Program Chemical Repository. The FDA-approved anticancer drug set is available from the NCI Developmental Therapeutics Program. […] The stock solutions were prepared in dimethyl sulfoxide (DMSO, Sigma-Aldrich, St. Louis, MO, cat. D2650) at 800-fold the tested concentration and stored at -70 degrees C prior to their use. All drugs and investigational agents were tested over a range starting from a high concentration at or near the clinical Cmax and decreasing in half-log increments. If the clinical Cmax for an agent had not been determined, the highest concentration tested was 10 microM.
# NCI60 Cell Culture. NCI60 cell lines were obtained from the NCI Developmental Therapeutics Program Tumor Repository. For each lot of cells, the Repository performed Applied Biosystems AmpFLSTR Identifiler testing with PCR amplification to confirm consistency with the published Identifier STR profile for each cell line. Cells were kept in continuous culture for no more than 20 passages. The optimal seeding densities for each of the cell lines at each time point assessed were determined prior to performing the concentration response studies. Briefly, the NCI60 human tumor lines were grown as monolayers in RPMI 1640 medium supplemented with 10% FBS and 2 mmol/L L-glutamine.
# An additional 2 lines were from the NCI60 cell line panel including melanomas, MALME-3M and SK-MEL-2. Pooled donor human umbilical vein endothelial cells (HUVEC, Lonza, cat. CC-2519) and human mesenchymal stem cells (hMSC, Lonza, cat. PT-2501) were purchased from Lonza (Walkersville, MD).
# PDMR cell lines were grown in complete medium (DC medium): Dulbecco's modified Eagle's medium (DMEM)/F12 supplemented with 5% fetal bovine serum (FBS), 2 mM L-glutamine, 100 U/mL penicillin and 100 µg/ml streptomycin, 0.4 µg/ml hydrocortisone, 10 ng/ml epidermal growth factor (EGF) recombinant human protein, 24 µg/mL adenine, and 0.1 mg/mL primocin. During culture from frozen stock vials, PDMR cells were cultured in the same medium containing 10 µM Y-27632 (see Table 3). The PDCs were cultured in complete DMEM/F12 media without 10 microM Y-27632 dihydrochloride for at least two passages prior to the screen. The pooled donor HUVEC and hMSC were cultured in endothelial cell growth medium 2 (PromoCell, Heidelberg, Germany, cat. C-22011) and mesenchymal stem cell growth medium 2 (PromoCell, cat. C-28009), respectively. For all experiments, HUVEC and hMSC were used at passages </=5.
# For the pre-screen, cell seeding densities were determined from a titration spanning the range from 5,000 to 313 cells per well. The mct-spheroids including 60% malignant cells, 25% HUVEC and 15% MSC dispensed as a mixture into U-bottom Ultra-Low Attachment 384-well plates (Corning, NY)
# High-throughput Drug Combination Screening.
# Prior to their inoculation into 384-well plates, malignant cells, HUVEC, and hMSC were removed from T flasks using TrypLE express (Thermo Fisher Scientific, cat. 12605036) and harvested by centrifugation for 5 min at 233 x g. […]
# 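Also: spheroids exposed to compounds for 7 days.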
# 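For viability, T/C in this document: 100% = DMSO vehicle wells.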
smiles,measurement,setting,value
CC(=O)Nc1cccc(-n2c(=O)n(C3CC3)c(=O)c3c(Nc4ccc(I)cc4F)n(C)c(=O)c(C)c32)c1 + CC(C)NCC(C(=O)N1CCN(c2ncnc3c2C(C)CC3O)CC1)c1ccc(Cl)cc1,IC50,second compound 0.3 µM,1.62 nM
same,IC50,second compound 0.949 µM,1.76 nM
same,IC50,second compound 3 µM,1.25 nM
same,IC50,second compound 9.49 µM,0.348 nM
same,IC50,second compound 30 µM,< 0.0949 nM
same,"viability, T/C","second compound 0.3 µM, first compound 94.9 pM",98.8%
same,"viability, T/C","second compound 0.3 µM, first compound 0.0003 µM",97.5%
same,"viability, T/C","second compound 0.3 µM, first compound 0.000949 µM",73.5%
same,"viability, T/C","second compound 0.3 µM, first compound 0.003 µM",22.7%
same,"viability, T/C","second compound 0.3 µM, first compound 0.00949 µM",2.28%
same,"viability, T/C","second compound 0.3 µM, first compound 0.03 µM",1.04%
same,"viability, T/C","second compound 0.949 µM, first compound 94.9 pM",100%
same,"viability, T/C","second compound 0.949 µM, first compound 0.0003 µM",94%
same,"viability, T/C","second compound 0.949 µM, first compound 0.000949 µM",77.8%
same,"viability, T/C","second compound 0.949 µM, first compound 0.003 µM",26.2%
same,"viability, T/C","second compound 0.949 µM, first compound 0.00949 µM",1.76%
same,"viability, T/C","second compound 0.949 µM, first compound 0.03 µM",0.37%
same,"viability, T/C","second compound 3 µM, first compound 94.9 pM",87.3%
same,"viability, T/C","second compound 3 µM, first compound 0.0003 µM",82.8%
same,"viability, T/C","second compound 3 µM, first compound 0.000949 µM",61.9%
same,"viability, T/C","second compound 3 µM, first compound 0.003 µM",12.6%
same,"viability, T/C","second compound 3 µM, first compound 0.00949 µM",0.36%
same,"viability, T/C","second compound 3 µM, first compound 0.03 µM",0.28%
same,"viability, T/C","second compound 9.49 µM, first compound 94.9 pM",63.9%
same,"viability, T/C","second compound 9.49 µM, first compound 0.0003 µM",55%
same,"viability, T/C","second compound 9.49 µM, first compound 0.000949 µM",16.2%
same,"viability, T/C","second compound 9.49 µM, first compound 0.003 µM",0.75%
same,"viability, T/C","second compound 9.49 µM, first compound 0.00949 µM",0.11%
same,"viability, T/C","second compound 9.49 µM, first compound 0.03 µM",0.09%
same,"viability, T/C","second compound 30 µM, first compound 94.9 pM",20.5%
same,"viability, T/C","second compound 30 µM, first compound 0.0003 µM",10.1%
same,"viability, T/C","second compound 30 µM, first compound 0.000949 µM",0.5%
same,"viability, T/C","second compound 30 µM, first compound 0.003 µM",0.25%
same,"viability, T/C","second compound 30 µM, first compound 0.00949 µM",0.1%
same,"viability, T/C","second compound 30 µM, first compound 0.03 µM",0.12%
CC(C)CC(NC(=O)C(Cc1ccccc1)NC(=O)c1cnccn1)B(O)O (stereo not given) + CC(C)NCC(C(=O)N1CCN(c2ncnc3c2C(C)CC3O)CC1)c1ccc(Cl)cc1,IC50,second compound 0.3 µM,1.8 nM
same,IC50,second compound 0.949 µM,1.82 nM
same,IC50,second compound 3 µM,1.64 nM
same,IC50,second compound 9.49 µM,1.22 nM
same,IC50,second compound 30 µM,< 0.0316 nM
same,"viability, T/C","second compound 0.3 µM, first compound 31.6 pM",102%
same,"viability, T/C","second compound 0.3 µM, first compound 0.0001 µM",102%
same,"viability, T/C","second compound 0.3 µM, first compound 0.000316 µM",96.1%
same,"viability, T/C","second compound 0.3 µM, first compound 0.001 µM",97.3%
same,"viability, T/C","second compound 0.3 µM, first compound 0.00316 µM",4.43%
same,"viability, T/C","second compound 0.3 µM, first compound 0.01 µM",0.08%
same,"viability, T/C","second compound 0.949 µM, first compound 31.6 pM",102%
same,"viability, T/C","second compound 0.949 µM, first compound 0.0001 µM",108%
same,"viability, T/C","second compound 0.949 µM, first compound 0.000316 µM",109%
same,"viability, T/C","second compound 0.949 µM, first compound 0.001 µM",101%
same,"viability, T/C","second compound 0.949 µM, first compound 0.00316 µM",2.86%
same,"viability, T/C","second compound 0.949 µM, first compound 0.01 µM",0.1%
same,"viability, T/C","second compound 3 µM, first compound 31.6 pM",84%
same,"viability, T/C","second compound 3 µM, first compound 0.0001 µM",87.6%
same,"viability, T/C","second compound 3 µM, first compound 0.000316 µM",90.9%
same,"viability, T/C","second compound 3 µM, first compound 0.001 µM",83.1%
same,"viability, T/C","second compound 3 µM, first compound 0.00316 µM",6.23%
same,"viability, T/C","second compound 3 µM, first compound 0.01 µM",0.05%
same,"viability, T/C","second compound 9.49 µM, first compound 31.6 pM",66.8%
same,"viability, T/C","second compound 9.49 µM, first compound 0.0001 µM",71%
same,"viability, T/C","second compound 9.49 µM, first compound 0.000316 µM",72.5%
same,"viability, T/C","second compound 9.49 µM, first compound 0.001 µM",60%
same,"viability, T/C","second compound 9.49 µM, first compound 0.00316 µM",1.26%
same,"viability, T/C","second compound 9.49 µM, first compound 0.01 µM",0.08%
same,"viability, T/C","second compound 30 µM, first compound 31.6 pM",21.8%
same,"viability, T/C","second compound 30 µM, first compound 0.0001 µM",21.8%
same,"viability, T/C","second compound 30 µM, first compound 0.000316 µM",23.7%
same,"viability, T/C","second compound 30 µM, first compound 0.001 µM",22%
same,"viability, T/C","second compound 30 µM, first compound 0.00316 µM",0.38%
same,"viability, T/C","second compound 30 µM, first compound 0.01 µM",0.13%
